pIC50: −log10 of the molar value.
Molecular target: Adenosine kinase (Rattus norvegicus, UniProt Q64640)
Test: ADK Inhibition Assay
Conditions: pH 7.5; 23 °C
Description: ADK activity was monitored by a radiochemical assay, which measures the conversion of radioactive Ado ([U-14C] adenosine or [2-3H] adenosine) to AMP in the presence of ATP and MgCl2. The radioactivity incorporated was directly proportional to the conversion rate. The reaction was terminated by aliquoting the reaction mixture onto DE-81 anion exchange filter disks. The filter disks were then dried, washed, and counted. Bound radioactivity was determined by standard scintillation spectrometry at an efficiency of 55%.

Sequence of Adenosine kinase (Q64640 whole entry): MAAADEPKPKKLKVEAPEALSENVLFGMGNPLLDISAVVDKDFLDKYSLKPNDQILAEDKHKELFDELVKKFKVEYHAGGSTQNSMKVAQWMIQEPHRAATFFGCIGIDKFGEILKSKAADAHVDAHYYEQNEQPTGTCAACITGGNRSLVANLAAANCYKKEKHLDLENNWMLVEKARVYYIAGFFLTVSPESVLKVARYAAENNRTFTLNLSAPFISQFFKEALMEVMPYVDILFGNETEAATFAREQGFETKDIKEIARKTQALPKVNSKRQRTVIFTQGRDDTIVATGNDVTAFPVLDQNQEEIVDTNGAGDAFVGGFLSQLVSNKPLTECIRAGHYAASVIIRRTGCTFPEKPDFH

pIC50: < 6.00
Compound: Cc1nc(N)c(-c2ccccc2)c(C#Cc2ccc(N(C)C)cc2)n1
